Results as given in ChEMBL document CHEMBL5046251, “Discovery of a Series of Pyrimidine Carboxamides as Inhibitors of Vanin-1” (J Med Chem, 2022).
One block for each compound: values may come before it. Activity calls are given as the source filed them. The rule behind the calls is not given here.

Columns and labels:
Pantetheinase [1] = target: T1, Pantetheinase (Homo sapiens, UniProt O95497); experiment: Inhibition of recombinant N-terminal FLAG/His6-tagged human vanin-1 expressed in CHO cells at 10 uM by 1H NMR analysis; assay type: cell-based
T1 sequence (O95497 whole entry): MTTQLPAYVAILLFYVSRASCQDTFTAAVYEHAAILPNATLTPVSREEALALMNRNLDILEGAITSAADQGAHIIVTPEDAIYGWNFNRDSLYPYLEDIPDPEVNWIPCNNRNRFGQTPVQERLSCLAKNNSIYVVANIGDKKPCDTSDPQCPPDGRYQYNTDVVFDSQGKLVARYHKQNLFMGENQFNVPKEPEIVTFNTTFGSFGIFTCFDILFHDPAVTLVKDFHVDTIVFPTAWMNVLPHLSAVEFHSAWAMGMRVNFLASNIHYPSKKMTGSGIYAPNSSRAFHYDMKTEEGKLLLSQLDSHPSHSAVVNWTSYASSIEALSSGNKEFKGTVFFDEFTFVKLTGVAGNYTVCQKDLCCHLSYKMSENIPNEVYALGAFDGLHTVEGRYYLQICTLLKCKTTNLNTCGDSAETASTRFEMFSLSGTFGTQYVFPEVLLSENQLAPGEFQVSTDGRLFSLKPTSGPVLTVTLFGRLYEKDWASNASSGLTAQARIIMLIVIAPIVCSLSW

[2] = Intrinsic clearance in human hepatocytes assessed per million cells; assay type: ADME, cell-based, Hepatocyte
Pantetheinase [3] = target: T2, Pantetheinase (Mus musculus, UniProt Q9Z0K8); experiment: Inhibition of mouse vanin-1
T2 sequence (Q9Z0K8 whole entry): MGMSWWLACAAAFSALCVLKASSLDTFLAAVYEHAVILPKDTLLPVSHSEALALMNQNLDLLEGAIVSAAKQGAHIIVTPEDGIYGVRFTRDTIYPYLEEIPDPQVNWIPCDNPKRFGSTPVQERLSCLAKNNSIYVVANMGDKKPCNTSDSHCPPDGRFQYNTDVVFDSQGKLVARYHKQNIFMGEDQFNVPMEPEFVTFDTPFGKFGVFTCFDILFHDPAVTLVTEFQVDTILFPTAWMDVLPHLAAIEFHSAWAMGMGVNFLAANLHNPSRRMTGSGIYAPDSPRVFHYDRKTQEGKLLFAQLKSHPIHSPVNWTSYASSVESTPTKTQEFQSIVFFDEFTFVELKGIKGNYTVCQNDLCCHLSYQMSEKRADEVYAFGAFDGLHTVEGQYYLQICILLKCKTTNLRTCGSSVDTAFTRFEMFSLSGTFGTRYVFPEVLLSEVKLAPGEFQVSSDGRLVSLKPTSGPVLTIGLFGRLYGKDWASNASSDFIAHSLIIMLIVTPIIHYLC

Pantetheinase [4] = target: T1, Pantetheinase; experiment: Binding affinity to recombinant N-terminal FLAG/His6-tagged human vanin-1 expressed in CHO cells assessed as dissociation constant by surface plasmon resonance analysis
[5] = Oral bioavailability in rat; assay type: ADME, organism-based; details: in vivo
[6] = Plasma protein binding in human assessed as unbound fraction; assay type: ADME, cell-free
Caspase-3 = target: T3, Caspase-3 (Homo sapiens, UniProt P42574); experiment: Inhibition of caspase-3 (unknown origin)
T3 sequence (P42574 whole entry): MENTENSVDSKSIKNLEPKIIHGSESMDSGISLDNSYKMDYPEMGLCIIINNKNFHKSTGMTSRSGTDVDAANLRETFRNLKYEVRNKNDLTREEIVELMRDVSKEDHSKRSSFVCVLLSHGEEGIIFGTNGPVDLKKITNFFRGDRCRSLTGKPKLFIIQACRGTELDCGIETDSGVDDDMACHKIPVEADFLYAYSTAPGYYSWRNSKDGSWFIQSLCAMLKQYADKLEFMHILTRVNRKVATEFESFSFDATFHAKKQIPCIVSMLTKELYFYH

Biotinidase = target: T4, Biotinidase (Homo sapiens, UniProt P43251); experiment: Inhibition of N-terminal FLAG/His6-tagged human biotinidase expressed in COS cells using biotinyl-7-amino-4-trifluoromethylcoumarin as substrate preincubated for 10 mins followed by substrate addition and measured after 90 mins; assay type: cell-based
T4 sequence (P43251 whole entry): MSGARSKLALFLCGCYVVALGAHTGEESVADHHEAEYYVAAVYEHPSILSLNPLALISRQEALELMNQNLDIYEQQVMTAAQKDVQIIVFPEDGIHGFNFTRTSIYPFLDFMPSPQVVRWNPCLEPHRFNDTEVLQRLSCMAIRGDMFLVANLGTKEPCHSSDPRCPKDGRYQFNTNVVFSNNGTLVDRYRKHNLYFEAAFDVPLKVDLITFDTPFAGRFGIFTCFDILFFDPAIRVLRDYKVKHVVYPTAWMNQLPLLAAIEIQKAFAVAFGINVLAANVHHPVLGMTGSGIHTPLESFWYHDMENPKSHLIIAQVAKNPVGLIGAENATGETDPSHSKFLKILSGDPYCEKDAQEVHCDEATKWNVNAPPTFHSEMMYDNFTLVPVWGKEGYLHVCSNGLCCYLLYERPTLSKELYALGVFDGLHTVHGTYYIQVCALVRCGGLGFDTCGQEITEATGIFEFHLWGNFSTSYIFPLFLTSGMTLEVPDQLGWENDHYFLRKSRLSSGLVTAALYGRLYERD

[7] = Intrinsic clearance in human liver microsomes; assay type: ADME, Microsome
[8] = Intrinsic clearance in rat hepatocytes assessed per million cells; assay type: ADME, cell-based, Hepatocyte
[9] = target: T5, Pantetheinase (Homo sapiens) (UniProt O95497); experiment: Binding affinity to recombinant N-terminal FLAG/His6-tagged human vanin-1 expressed in CHO cells assessed as binding constant (Koff) by surface plasmon resonance analysis
T5 sequence (whole entry): T1 sequence (O95497 whole entry)

Caspase-2 = target: T6, Caspase-2 (Homo sapiens, UniProt P42575); experiment: Inhibition of caspase-2 (unknown origin)
T6 sequence (P42575 whole entry): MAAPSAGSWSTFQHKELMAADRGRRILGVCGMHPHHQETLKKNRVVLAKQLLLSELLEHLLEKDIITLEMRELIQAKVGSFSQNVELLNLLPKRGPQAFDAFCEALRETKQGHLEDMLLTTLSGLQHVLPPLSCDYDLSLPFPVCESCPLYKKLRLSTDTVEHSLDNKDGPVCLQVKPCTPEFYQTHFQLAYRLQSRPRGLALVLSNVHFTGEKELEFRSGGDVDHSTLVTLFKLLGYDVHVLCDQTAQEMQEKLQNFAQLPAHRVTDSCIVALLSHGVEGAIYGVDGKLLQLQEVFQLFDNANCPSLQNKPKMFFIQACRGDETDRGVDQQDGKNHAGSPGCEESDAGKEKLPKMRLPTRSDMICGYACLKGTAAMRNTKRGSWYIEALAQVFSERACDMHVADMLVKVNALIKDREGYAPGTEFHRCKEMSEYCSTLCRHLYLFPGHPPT

[10] = Apparent permeability across apical to basolateral side in RRCK cells; details: dog, MDCK
[11] = Efflux ratio in human MDR cells; assay type: ADME, cell-based
[12] = target: T5, Pantetheinase (Homo sapiens); experiment: Binding affinity to recombinant N-terminal FLAG/His6-tagged human vanin-1 expressed in CHO cells assessed as binding constant (Kon) by surface plasmon resonance analysis
[13] = Half life in rat; assay type: ADME; details: in vivo
Caspase-1 = target: T7, Caspase-1 (Homo sapiens, UniProt P29466); experiment: Inhibition of caspase-1 (unknown origin)
T7 sequence (P29466 whole entry): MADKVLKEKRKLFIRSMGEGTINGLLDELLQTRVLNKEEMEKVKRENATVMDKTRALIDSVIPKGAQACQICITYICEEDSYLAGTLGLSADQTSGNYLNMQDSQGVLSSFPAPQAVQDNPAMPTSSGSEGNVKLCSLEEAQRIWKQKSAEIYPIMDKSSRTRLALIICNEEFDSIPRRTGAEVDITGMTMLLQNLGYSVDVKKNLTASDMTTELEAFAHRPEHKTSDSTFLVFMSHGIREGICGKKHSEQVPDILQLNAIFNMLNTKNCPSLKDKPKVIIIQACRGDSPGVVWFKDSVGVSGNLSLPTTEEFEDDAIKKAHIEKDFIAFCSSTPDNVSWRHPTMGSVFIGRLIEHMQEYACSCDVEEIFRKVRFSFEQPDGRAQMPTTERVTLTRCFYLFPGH

[14] = Volume of distribution at steady state in rat; assay type: ADME; details: in vivo, read-out: Vdss
[15] = Clearance in rat; assay type: ADME; details: in vivo
[16] = Lipophilicity, log D of the compound in Octanol/buffer by shake-flask method
[17] = Clearance in rat at 1 mg/kg, iv measured upto 24 hrs by LC-MS/MS analysis; assay type: ADME, organism-based; details: in vivo
Mus musculus [18] = experiment: Anti-colitis activity against DSS-induced BALB/c mouse model assessed as increase in body weight at 50 mg/kg, po, qd administered for 10 days; assay type: functional, organism-based; details: time 10.0 day
[19] = Renal clearance in rat at 1 mg/kg, iv assessed glomerular filtration rate; assay type: ADME, organism-based; details: in vivo
[20] = Unbound drug concentration in serum of DSS-induced BALB/c mouse colitis model at 50 mg/kg administered for 10 days; assay type: ADME, organism-based; details: in vivo, 240 h, time 10 day
[21] = Half life in rat at 1 mg/kg, iv measured upto 24 hrs by LC-MS/MS analysis; assay type: ADME, organism-based; details: in vivo
Mus musculus [22] = experiment: Anti-colitis activity against DSS-induced BALB/c mouse model assessed as reduction in disease activity index at 50 mg/kg, po, qd administered for 10 days; assay type: functional, organism-based; details: time 10.0 day
[23] = AUC in rat at 10 mg/kg, po measured upto 24 hrs by LC-MS/MS analysis; assay type: ADME, organism-based; parameters: route oral, dose 10 mg/kg, time <=24; details: in vivo
[24] = Oral bioavailability in rat at 10 mg/kg measured upto 24 hrs by LC-MS/MS analysis; assay type: ADME, organism-based; details: in vivo
[25] = Intrinsic clearance in human hepatocytes assessed per million cells by relay assay method; assay type: ADME, cell-based, Hepatocyte
[26] = AUC in rat at 1 mg/kg, iv measured upto 24 hrs by LC-MS/MS analysis; assay type: ADME, organism-based; parameters: route intravenous, dose 1 mg/kg, time <=24; details: in vivo
[27] = AUC in mouse at 10 mg/kg, sc measured upto 24 hrs by LC-MS/MS analysis; assay type: ADME, organism-based; parameters: route subcutaneous, dose 10 mg/kg, time <=24; details: in vivo
[28] = Volume of distribution in rat at 1 mg/kg, iv measured upto 24 hrs by LC-MS/MS analysis; assay type: ADME, organism-based; details: in vivo
[29] = Total clearance in mouse; assay type: ADME, organism-based; details: in vivo
Pantetheinase [30] = target: T1, Pantetheinase; experiment: Inhibition of human plasma vanin-1 using pantetheine-7-amino-4-trifluoromethykournarin as substrate preincubated for 30 mins followed by substrate addition; assay type: cell-free
[31] = Unbound clearance in mouse; assay type: ADME, organism-based; details: in vivo
[32] = Volume of distribution at steady state in mouse; assay type: ADME, organism-based; details: in vivo, read-out: Vdss
Mus musculus [33] = experiment: Anti-colitis activity against DSS-induced BALB/c mouse model assessed as reduction in disease activity index at 50 mg/kg, sc measured on day 8 and 9; assay type: functional, organism-based; details: time 8-9 day
Mus musculus [34] = experiment: Anti-colitis activity against DSS-induced colitis BALB/c mouse model assessed as effect on colon length at 50 mg/kg, sc measured after 14 days; assay type: functional, organism-based; details: time 14.0 day
[35] = Oral bioavailability in mouse; assay type: ADME, organism-based; details: in vivo
[36] = Apparent intrinsic clearance in human liver microsome; assay type: ADME; details: liver microsomes, read-out: CLH
Mus musculus [37] = experiment: Anti-colitis activity against DSS-induced BALB/c mouse model assessed as increase in body weight at 50 mg/kg, sc measured on day 8 and 9; assay type: functional, organism-based; details: time 8-9 day
[38] = Apparent intrinsic clearance in mouse liver microsome; assay type: ADME; details: liver microsomes, read-out: CLH
[39] = Plasma protein binding in mouse assessed as unbound fraction; assay type: ADME, cell-free
[40] = Half life in mouse; assay type: ADME, organism-based; details: in vivo

IC50 (Pantetheinase [1]): 115 nM
CLint [2]: 11 µL/min/1e6 cells
IC50 (Pantetheinase [3]): 10.2 nM
Kd (Pantetheinase [4]): 20 nM
bioavailability [5]: 11%
fraction unbound [6]: 0.00918
IC50 (Caspase-3): > 10000 nM
IC50 (Biotinidase): 18000 nM
Intrinsic clearance [7]: < 10 µL/min/mg
CLint [8]: 45 µL/min/1e6 cells
K [9]: 0.52 s⁻¹
IC50 (Caspase-2): > 10000 nM
Papp A→B [10]: 9.5 ×10⁻⁶ cm/s
efflux ratio [11]: 3.2
K [12]: 8.1 10^7/M/s
half-life [13]: 9 min
IC50 (Caspase-1): > 10000 nM
Vd [14]: 1.1 L/kg
clearance [15]: 88 mL/min/kg
logD [16]: 0.7
SMILES: O=C(c1cnc(NC2(c3cncnc3)CC2)nc1)N1CCCCC1

SMILES: C[C@H](Nc1ncc(C(=O)N2CCC3(CCOCC3)C2)cn1)c1cnccn1
CLint [2]: < 3 µL/min/1e6 cells
IC50 (Pantetheinase [3]): 0.56 nM
clearance [17]: 30 mL/min/kg
Activity (Mus musculus [18]): Active
CL [19]: 25%
Ct [20]: 2852 nM
half-life [21]: 48 min
Activity (Mus musculus [22]): Active
IC50 (Biotinidase): 2800 nM
AUC at 24 h [23]: 2250 ng·h/mL
bioavailability [24]: 37%
Intrinsic clearance [7]: < 8 µL/min/mg
CLint [8]: 6 µL/min/1e6 cells
Papp A→B [10]: 14 ×10⁻⁶ cm/s
CLint [25]: 0.25 µL/min/1e6 cells
AUC at 24 h [26]: 616 ng·h/mL
AUC at 24 h [27]: 6590 ng·h/mL
logD [16]: 0.4
Vd [28]: 0.98 L/kg

clearance [29]: 29 mL/min/kg
IC50 (Pantetheinase [30]): 12 nM
IC50 (Pantetheinase [3]): 4.8 nM
CL free [31]: 49 mL/min/kg
Vd [32]: 1.1 L/kg
IC50 (Biotinidase): 24000 nM
bioavailability [35]: 29%
CLint scaled [36]: 14 mL/min/kg
Intrinsic clearance [7]: 14 µL/min/mg
CLint scaled [38]: 39 mL/min/kg
Papp A→B [10]: 27 ×10⁻⁶ cm/s
fraction unbound [39]: 0.0046
half-life [40]: 60 min
logD [16]: 1.2
SMILES: N#Cc1cccc(C(=O)c2cnc(NC3(c4cncnc4)CC3)nc2)c1
Activity (Mus musculus [33]): Active
Activity (Mus musculus [34]): Active
Activity (Mus musculus [37]): Active
